Patent US20260042731A1, “(2,4-DICHLOROPHENOXY)ACETIC ACID ANALOGS” (CORTEVA AGRISCIENCE LLC, priority 2022, published 2026)
Read-outs that look alike come from different tables or passages of the source.

Experiments:
Format in all cases: in vivo
[1] = test system: Chenopodium album (CHEAL), common lambsquarters; assay: Postemergence herbicide evaluation, growth of Chenopodium album (CHEAL); conditions: Chenopodium album, post-emergence, read-out: Ave. CHEAL, percent reduction in plant size relative to the untreated control; for pest or weed control at 560 g/ha: 560 g ae/ha; for pest or weed control at 280 g/ha: 280 g ae/ha
[2] = test system: Amaranthus rudis (AMATA), tall water hemp; assay: Postemergence herbicide evaluation, growth of Amaranthus rudis (AMATA); conditions: Amaranthus tuberculatus, post-emergence, read-out: Ave. AMATA, percent reduction in plant size relative to the untreated control; for pest or weed control at 560 g/ha: 560 g ae/ha; for pest or weed control at 280 g/ha: 280 g ae/ha
[3] = test system: glyphosate resistant Conyza canadensis (L.) (ERICA), horseweed; assay: Postemergence herbicide evaluation, growth of Conyza canadensis (ERICA); conditions: Erigeron canadensis, post-emergence, read-out: Ave. ERICA, percent reduction in plant size relative to the untreated control; for pest or weed control at 560 g/ha: 560 g ae/ha; for pest or weed control at 280 g/ha: 280 g ae/ha
[4] = test system: Ambrosia artemisiifolia (AMBEL), common ragweed; assay: Postemergence herbicide evaluation, growth of Ambrosia artemisiifolia (AMBEL); conditions: Ambrosia artemisiifolia, post-emergence, read-out: AVE. AMBEL, percent reduction in plant size relative to the untreated control; for pest or weed control at 560 g/ha: 560 g ae/ha; for pest or weed control at 280 g/ha: 280 g ae/ha
[5] = test system: Abutilon theophrasti (ABUTH), velvetleaf; assay: Postemergence herbicide evaluation, growth of Abutilon theophrasti (ABUTH); conditions: Abutilon theophrasti, post-emergence, read-out: AVE. ABUTH, percent reduction in plant size relative to the untreated control; for pest or weed control at 560 g/ha: 560 g ae/ha; for pest or weed control at 280 g/ha: 280 g ae/ha
[6] = test system: weeds ABUTH, AMATA, AMBEL, CHEAL, ERICA; assay: Postemergence herbicide evaluation, overall average % weed control (ABUTH, AMATA, AMBEL, CHEAL, ERICA); conditions: post-emergence, read-out: Overall Ave % Weed Control; for pest or weed control at 560 g/ha: 560 g ae/ha; for pest or weed control at 280 g/ha: 280 g ae/ha

Compound | pest or weed control at 560 g/ha ([1]; 168 h, 7 DAA) | pest or weed control at 560 g/ha ([1]; 336 h, 14 DAA) | pest or weed control at 560 g/ha ([1]; 504 h, 21 DAA) | pest or weed control at 560 g/ha ([2]; 168 h, 7 DAA) | pest or weed control at 560 g/ha ([2]; 336 h, 14 DAA) | pest or weed control at 560 g/ha ([2]; 504 h, 21 DAA) | pest or weed control at 560 g/ha ([3]; 168 h, 7 DAA) | pest or weed control at 560 g/ha ([3]; 336 h, 14 DAA) | pest or weed control at 560 g/ha ([3]; 504 h, 21 DAA) | pest or weed control at 560 g/ha ([4]; 168 h, 7 DAA) | pest or weed control at 560 g/ha ([4]; 336 h, 14 DAA) | pest or weed control at 560 g/ha ([4]; 504 h, 21 DAA) | pest or weed control at 560 g/ha ([5]; 168 h, 7 DAA) | pest or weed control at 560 g/ha ([5]; 336 h, 14 DAA) | pest or weed control at 560 g/ha ([5]; 504 h, 21 DAA) | pest or weed control at 560 g/ha ([6]; 168 h, 7 DAA) | pest or weed control at 560 g/ha ([6]; 336 h, 14 DAA) | pest or weed control at 560 g/ha ([6]; 504 h, 21 DAA) | pest or weed control at 280 g/ha ([1]; 168 h, 7 DAA) | pest or weed control at 280 g/ha ([1]; 336 h, 14 DAA) | other results
COc1ccc(/C=N/OC(=O)COc2ccc(Cl)cc2Cl)cc1 [Compound A31] | 82.5% | 97% | 96% | 75% | 96% | 67.5% | 82.5% | 89.5% | 98.5% | 62.5% | 75% | 100% | 40% | 57.5% | 70% | 68.5% | 83% | 86.4% | – | – | –
O=C(COc1ccc(Cl)cc1Cl)Nc1c(Cl)c(F)nc(F)c1Cl [Compound D25] | 45% | 7.5% | 15% | 7.5% | 25% | 2.5% | 10% | 12.5% | 12.5% | 40% | 7.5% | 7.5% | 3.5% | 0% | 2.5% | 21.2% | 10.5% | 8% | 35% | 0% | pest or weed control at 280 g/ha ([1]; 504 h, 21 DAA): 12.5%; pest or weed control at 280 g/ha ([2]; 168 h, 7 DAA): 5%; pest or weed control at 280 g/ha ([2]; 336 h, 14 DAA): 15%; pest or weed control at 280 g/ha ([2]; 504 h, 21 DAA): 5%; pest or weed control at 280 g/ha ([3]; 168 h, 7 DAA): 7.5%; pest or weed control at 280 g/ha ([3]; 336 h, 14 DAA): 20%; pest or weed control at 280 g/ha ([3]; 504 h, 21 DAA): 10%; pest or weed control at 280 g/ha ([4]; 168 h, 7 DAA): 35%; pest or weed control at 280 g/ha ([4]; 336 h, 14 DAA): 15%; pest or weed control at 280 g/ha ([4]; 504 h, 21 DAA): 10%; pest or weed control at 280 g/ha ([5]; 168 h, 7 DAA): 0%; pest or weed control at 280 g/ha ([5]; 336 h, 14 DAA): 0%; pest or weed control at 280 g/ha ([5]; 504 h, 21 DAA): 0%; pest or weed control at 280 g/ha ([6]; 168 h, 7 DAA): 16.5%; pest or weed control at 280 g/ha ([6]; 336 h, 14 DAA): 10%; pest or weed control at 280 g/ha ([6]; 504 h, 21 DAA): 7.5%
O=C(COc1ccc(Cl)cc1Cl)Oc1cccnn1 [Compound E2] | 75% | 88% | 94% | 73% | 83% | 84% | 73% | 85% | 90% | 63% | 95% | 99% | 85% | 93% | 98% | 74% | 89% | 93% | 65% | 63% | pest or weed control at 280 g/ha ([1]; 504 h, 21 DAA): 63%; pest or weed control at 280 g/ha ([2]; 168 h, 7 DAA): 78%; pest or weed control at 280 g/ha ([2]; 336 h, 14 DAA): 80%; pest or weed control at 280 g/ha ([2]; 504 h, 21 DAA): 83%; pest or weed control at 280 g/ha ([3]; 168 h, 7 DAA): 70%; pest or weed control at 280 g/ha ([3]; 336 h, 14 DAA): 88%; pest or weed control at 280 g/ha ([3]; 504 h, 21 DAA): 94%; pest or weed control at 280 g/ha ([4]; 168 h, 7 DAA): 63%; pest or weed control at 280 g/ha ([4]; 336 h, 14 DAA): 90%; pest or weed control at 280 g/ha ([4]; 504 h, 21 DAA): 94%; pest or weed control at 280 g/ha ([5]; 168 h, 7 DAA): 85%; pest or weed control at 280 g/ha ([5]; 336 h, 14 DAA): 93%; pest or weed control at 280 g/ha ([5]; 504 h, 21 DAA): 98%; pest or weed control at 280 g/ha ([6]; 168 h, 7 DAA): 72%; pest or weed control at 280 g/ha ([6]; 336 h, 14 DAA): 83%; pest or weed control at 280 g/ha ([6]; 504 h, 21 DAA): 86%
